# Article PMC7190660, “Standardised comparison of limonene-derived monoterpenes identifies structural determinants of anti-inflammatory activity” (Scientific Reports, 2020)
# Where “and” joins values, the source holds several entries; their conditions need not be identical. Equal entries are not always repeated. Entries after “also recorded” stand apart in the source; their conditions may differ.
# Experiments:
# NOS2 [1] = experiment: LPS-induced NOS2 mRNA (qRT-PCR) and protein (western blot) in Raw 264.7; format: cell-based, mouse; details: 1 h pre-treatment, Bay 11-7082 5 μM; for LPS-induced NOS2 mRNA levels: LPS 1 µg/mL 6 h, test compounds 666 µM; for LPS-induced NOS2 protein levels: LPS 1 µg/mL 18 h
# Method: Macrophage cultures were treated with 1 µg/mL LPS, for 6 h (a) or 18 h (b), following pre-treatment for 1 h with 666 µM of each test compound (a) or with the concentrations indicated in (b). […] Control cells (Ctrl) were treated with the vehicle (0.1% DMSO) in the absence of LPS. Each column represents the mean ± SEM of four independent experiments. The blots shown are representative of, at least, three independent experiments and are cropped for clarity and conciseness.
# Total RNA extraction and qRT-PCR were performed as described before[52]. Briefly, total RNA was extracted using the NZYol (NZYTECH, Lisbon, Portugal) and quantified in a NanoDrop ND-1000 spectrophotometer at 260 nm. RNA purity was assessed by analysis of 260/230 and 260/280 absorption ratios. The cDNA was reverse-transcribed using NZY First Strand cDNA Synthesis Kit (NZYTECH), beginning with 2 µg of total RNA. qRT-PCR was performed, in duplicate for each sample, using NZYSpeedy qPCR Green Master Mix (2×) (NZYTECH) on CFX96 Real-Time PCR Detection System (Bio-Rad, Hercules, CA, USA).
# Gene expression changes were analysed using the built-in CFX Manager software which enables the analysis of the results by the Pfaffl method, a variation of the ΔΔCT method corrected for gene-specific efficiencies[53]. The results were normalized using Hprt1 as housekeeping gene.
# Total cell extracts were prepared and western blot was performed as described before[54]. Briefly, total (25 µg for Raw 264.7 cell line and 20 µg for human chondrocytes) proteins were separated by SDS-PAGE under reducing conditions and electrotransferred onto PVDF membranes. […] Immune complexes were detected with Enhanced ChemiFluorescence reagent (GE Healthcare) in the imaging system Thyphoon FLA 9000 (GE Healthcare). The membranes were reprobed with a mouse monoclonal anti-β-Tubulin I antibody (Sigma-Aldrich Co.), diluted at 1:20000, as a loading control, for 1 h at room temperature. Image analysis was performed with TotalLab TL120 software (Nonlinear Dynamics Ltd).
# [2] = system: LPS-induced NO production in Raw 264.7 macrophages; experiment: Primary screening: LPS-induced NO production (nitrite, Griess reaction) in Raw 264.7 macrophages; format: cell-based, mouse; details: for IC50: Mus musculus, RAW264.7, Raw 264.7 cell line; for Decrease (inhibition) of LPS-induced NO production: at the highest concentration tested; for Decrease (inhibition) of LPS-induced NO production / % inhibition of LPS-induced NO production / Effect on LPS-induced NO production / anti-inflammatory activity (in words): Raw 264.7; for % inhibition of LPS-induced NO production: at the highest non-cytotoxic concentration tested, nitrite in supernatants; for Effect on LPS-induced NO production / anti-inflammatory activity (in words): non-cytotoxic concentrations
# Method: (§1) Raw 264.7 cells were plated at a density of 3 × 10^5 cells/mL and left to stabilize for up to 24 h.
# (§2) This vehicle was used as control. Lipopolysaccharides from Escherichia coli 026:B6 (LPS; Sigma-Aldrich Co.) were dissolved in phosphate buffered saline (PBS). Recombinant human interleukin-1β (IL-1β; Peprotech, Rocky Hill, NJ, USA) was dissolved in PBS containing 0.1% Bovine Serum Albumin.
# (§3) NO production was measured as the amount of nitrite accumulated in the culture supernatants using the Griess reaction which is based in the reaction of nitrite with sulfanilamide under acidic conditions, yielding a diazonium ion that couples to N-(1-napthtyl)ethylenediamine dihydrochloride to form a water-soluble red-violet azo dye that absorbs at 550 nm[51]. Briefly, equal volumes of culture supernatants and reagents [equal volumes of 1% (w/v) sulphanilamide in 5% (v/v) phosphoric acid and 0.1% (w/v) N-(1-napthtyl)ethylenediamine dihydrochloride] were mixed and incubated for 10 min, at room temperature, in the dark. The concentration of nitrite accumulated in the culture supernatants was calculated by interpolation of the absorbance of each sample, read in Biotek Synergy HT plate reader (Biotek), in a standard curve of sodium nitrite.
# NOS2 [3] = experiment: NO production and NOS2 protein levels pre-induced by LPS (compound added after LPS removal) in Raw 264.7; format: cell-based, mouse; details: LPS 1 μg/mL 8 h, LPS removed, then 666 µM compound for 18 h
# Method: (§4) Each column represents the mean ± SEM of, at least, three independent experiments. The blots shown are representative of, at least, three independent experiments and are cropped for clarity and conciseness.
# as §3
# (§5) Total cell extracts were prepared and western blot was performed as described before. Briefly, total (25 µg for Raw 264.7 cell line and 20 µg for human chondrocytes) proteins were separated by SDS-PAGE under reducing conditions and electrotransferred onto PVDF membranes. […] Immune complexes were detected with Enhanced ChemiFluorescence reagent (GE Healthcare) in the imaging system Thyphoon FLA 9000 (GE Healthcare). The membranes were reprobed with a mouse monoclonal anti-β-Tubulin I antibody (Sigma-Aldrich Co.), diluted at 1:20000, as a loading control, for 1 h at room temperature. Image analysis was performed with TotalLab TL120 software (Nonlinear Dynamics Ltd).
# Raw 264.7 cells = experiment: Cytotoxicity by resazurin reduction assay in Raw 264.7 cells; format: cell-based, mouse; details: viability not decreased by more than 30% relative to LPS alone (ISO 10993-5), LPS 1 µg/mL 18 h
# Method: Various concentrations of the test compounds, in the absence or presence of LPS, were first evaluated for cytotoxicity using the resazurin reduction assay[26]
# as §1
# Resazurin is a redox dye used as an indicator of cellular metabolic activity for various applications, namely cell viability, proliferation and toxicity. The assay is based on the intracellular reduction of the non-fluorescent resazurin to resorufin (a fluorescent and pink coloured compound) by mitochondrial or microsomal enzymes that use NADH or NADPH as electron sources. Since only metabolically active cells can reduce the dye, the increase in fluorescence or absorbance is directly proportional to the number of viable cells[26],[50].
# (§6) To select non-cytotoxic concentrations of the test compounds, the resazurin solution was added to each well to a final concentration of 50 µM, 90 min before the end of the treatment period indicated in the figure legends. Then, absorbances at 570 nm and 620 nm (reference wavelength) were read in a Biotek Synergy HT plate reader (Biotek, Winooski, VT, USA).
# IL-1β = experiment: LPS-induced IL-1β mRNA, pro-IL-1β protein and secreted IL-1β in Raw 264.7; format: cell-based, mouse; details: for LPS-induced IL-1β mRNA levels: LPS 1 µg/mL 6 h, 1 h pre-treatment with 666 µM; for mature IL-1β secreted into the cell culture medium / pro-IL-1β protein levels: LPS 1 µg/mL 18 h, relative to LPS alone; for mature IL-1β secreted into the cell culture medium: 666 µM, ELISA
# Method: Upon transcription, this mRNA is translated into a precursor protein (pro-IL-1β) that undergoes partial hydrolysis by a proteolytic complex, the inflammasome, being converted into the mature IL-1β protein which is then secreted.
# Figure 3 (S)-(+)-carvone (4) and (R)-(−)-carvone (5) decrease LPS-induced IL-1β mRNA (a) and protein (b,c) levels in the Raw 264.7 cell line. Macrophage cultures were treated with 1 µg/mL LPS, for 6 h (a) or 18 h (b,c), following pre-treatment for 1 h with 666 µM of each test compound (a and c) or with the concentrations indicated in (b). Control cells (Ctrl) were treated with vehicle (0.1% DMSO) in the absence of LPS. Each column represents the mean ± SEM of, at least, three independent experiments. The blots shown are representative of, at least, three independent experiments and are cropped for clarity and conciseness. The corresponding full-length blots are presented in Fig. S3. *p < 0.05, **p < 0.01 and ****p < 0.0001 relative to LPS-treated cells. ^##p < 0.01, ^###p < 0.001 and ^####p < 0.0001 relative to the Ctrl. ^§p < 0.05 between the conditions indicated. MW: molecular weight marker.
# as §2
# Total RNA extraction and qRT-PCR were performed as described before. Briefly, total RNA was extracted using the NZYol (NZYTECH, Lisbon, Portugal) and quantified in a NanoDrop ND-1000 spectrophotometer at 260 nm. RNA purity was assessed by analysis of 260/230 and 260/280 absorption ratios. The cDNA was reverse-transcribed using NZY First Strand cDNA Synthesis Kit (NZYTECH), beginning with 2 µg of total RNA. qRT-PCR was performed, in duplicate for each sample, using NZYSpeedy qPCR Green Master Mix (2×) (NZYTECH) on CFX96 Real-Time PCR Detection System (Bio-Rad, Hercules, CA, USA).
# Gene expression changes were analysed using the built-in CFX Manager software which enables the analysis of the results by the Pfaffl method, a variation of the ΔΔCT method corrected for gene-specific efficiencies. The results were normalized using Hprt1 as housekeeping gene.
# as §5
# The concentration of IL-1β in the culture supernatants was measured using the Mouse IL-1β ELISA kit (ThermoScientific, Rockford, USA), following the manufacturer’s instructions.
# human chondrocytes [4] = experiment: IL-1β-induced NOS2 protein, NO production and pro-IL-1β protein in primary human chondrocytes; format: cell-based; details: IL-1β 10 ng/mL 24 h
# Method: The cells were treated with 10 ng/mL IL-1β for 24 h (a, b, c and d), following pre-treatment for 1 h with 666 or 1331 µM of (S)-(+)-carvone (4). As a positive control, the cells were similarly treated with 5 μM Bay 11-7082 (b and c). Control cells (Ctrl) were treated with the vehicle (0.1% DMSO) in the absence of IL-1β. Each column represents the mean ± SEM of, at least, three independent experiments. The blots shown are representative of, at least, three independent experiments and are cropped for clarity and conciseness.
# Briefly, cartilage shavings underwent sequential digestion with Pronase (Roche, Indianapolis, IN, USA) and collagenase A (Roche, Indianapolis, IN, USA). To avoid chondrocyte dedifferentiation, non-proliferating monolayer cultures were setup by plating 1× 10^6 chondrocytes/mL in HAM: F12 medium containing 3% antibiotics and 5% FBS and allowed to recover for 24 h at 37 °C in a humidified atmosphere with 5% CO2. Prior to any treatments, chondrocytes were serum-starved overnight and thereafter maintained in culture medium without FBS.
# This vehicle was used as control. […] Recombinant human interleukin-1β (IL-1β; Peprotech, Rocky Hill, NJ, USA) was dissolved in PBS containing 0.1% Bovine Serum Albumin.
# Total cell extracts were prepared and western blot was performed as described before[54]. […] Immune complexes were detected with Enhanced ChemiFluorescence reagent (GE Healthcare) in the imaging system Thyphoon FLA 9000 (GE Healthcare). The membranes were reprobed with a mouse monoclonal anti-β-Tubulin I antibody (Sigma-Aldrich Co.), diluted at 1:20000, as a loading control, for 1 h at room temperature. Image analysis was performed with TotalLab TL120 software (Nonlinear Dynamics Ltd).
# human chondrocytes [5] = experiment: Cell viability of IL-1β-treated primary human chondrocytes (resazurin); format: cell-based; details: 666 or 1331 µM; IL-1β 10 ng/mL 24 h
# Method: as §4, §2, §6
# human chondrocytes [6] = system: human chondrocytes; design: method as in PMID 25622554; details: limonene up to 200 μg/mL, β-myrcene up to 50 μg/mL; cited from earlier work
# Raw 264.7 cell line = system: Raw 264.7 cell line; design: method as in PMID 20625233, PMID 23541436; details: concentrations much higher than in the current study; cited from earlier work
# [7] = carvone 666 or 1331 µM, Bay 11-7082 5 µM
IC50 [2],SMILES,LPS-induced NOS2 mRNA levels (NOS2 [1]),LPS-induced NOS2 protein levels (NOS2 [1]),Decrease (inhibition) of LPS-induced NO production [2],% inhibition of LPS-induced NO production [2],Decrease of NO production (NOS2 [3]),Reduction of NOS2 protein levels (NOS2 [3]),Highest non-cytotoxic concentration tested (Raw 264.7 cells),LPS-induced IL-1β mRNA levels (IL-1β),mature IL-1β secreted into the cell culture medium (IL-1β),pro-IL-1β protein levels (IL-1β),pro-IL-1β protein levels (human chondrocytes [4]; 666 or 1331 µM),IL-1β-induced NO production (human chondrocytes [4]; [7]),IL-1β-induced NOS2 protein levels (human chondrocytes [4]; [7]),Cell viability relative to cells treated with IL-1β alone (human chondrocytes [5]),Anti-inflammatory effects (human chondrocytes [6]),Anti-inflammatory effects (Raw 264.7 cell line),Effect on LPS-induced NO production / anti-inflammatory activity (in words) [2],Effect on LPS-induced NO production / anti-inflammatory activity (in words) ([2]; listed as 16)
123 µM and 18.5 µg/mL,"C=C(C)[C@@H]1CC=C(C)C(=O)C1 [(R)-(−)-carvone (5), (R)-(−)-carvone]",significantly reduced,significantly reduced,greater than 30%,71.50 ± 1.74 % ± SEM,approximately 30%,approximately 60%,666 µM and 100 µg/mL,significantly reduced,significantly decreased,significantly decreased,,,,,,,,
110 µM and 16.5 µg/mL,"C=C(C)[C@H]1CC=C(C)C(=O)C1 [(S)-(+)-carvone (4), (S)-(+)-carvone]",significantly reduced,significantly reduced,greater than 30%,68.73 ± 1.55 % ± SEM,approximately 30%,approximately 60%,666 µM and 100 µg/mL,significantly reduced,significantly decreased,significantly decreased,significantly decreased pro-IL-1β protein levels in a concentration-dependent manner,significantly decreased,significantly decreased,not to affect cell viability,,,,
,C=C(C)[C@H]1CC=C(C)CC1 [limonene],,,,,,,,,,,,,,,Significant anti-inflammatory effects,Significant anti-inflammatory effects,,
,"C=CC(=C)CCC=C(C)C [β-myrcene (16), β-myrcene]",,,,16.48 ± 17.00 % ± SEM,,,183 µM and 25 µg/mL,,,,,,,,Significant anti-inflammatory effects,Significant anti-inflammatory effects,showed no activity,"no effect; also recorded: Neither the more rigid (17–19), nor the more flexible (16) of these four compounds showed any activity"
